PubChem BioAssay (NCI)
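GI50 = concentration required for 50% inhibition of growth. TGI denotes the concentration required for complete inhibition of growth.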

Experiments:
Assay in all cases: NCI anticancer screen, dose series, 384-well format
[1] = tested on: HCT-116 colon
[2] = tested on: HL-60(TB) leukemia
[3] = tested on: NCI-H522 lung
[4] = tested on: M14 melanoma
[5] = tested on: HCT-15 colon
[6] = tested on: 786-0 renal
[7] = tested on: MALME-3M melanoma
[8] = tested on: MCF7 breast
[9] = tested on: MOLT-4 leukemia
[10] = tested on: SR leukemia
[11] = tested on: SNB-19 CNS
[12] = tested on: IGROV1 ovarian
[13] = tested on: SNB-75 CNS

C[C@H](NC(=O)CCC(F)(F)F)C(=O)N[C@@H]1C(=O)N(CCO)c2ncccc2-c2ccccc21 showed a GI50 [1] of over 100 µM, a TGI [1] of over 100 µM and a GI50 [2] of 54.5 µM. For the same compound, the TGI [2] was over 100 µM, the GI50 [3] was over 100 µM and the TGI [3] was over 100 µM. It also gave a GI50 [4] of over 100 µM, a TGI [4] of over 100 µM and a GI50 [5] of over 100 µM. The TGI [5] was over 100 µM, the GI50 [6] was over 100 µM and the TGI [6] was over 100 µM. For the same compound, the GI50 [7] was over 100 µM, the TGI [7] was over 100 µM and the GI50 [8] was over 100 µM. The TGI [8] was over 100 µM, the GI50 [9] was 29.8 µM and the TGI [9] was over 100 µM. For the same compound, the GI50 [10] was 64 µM, the TGI [10] was over 100 µM and the GI50 [11] was over 100 µM. The TGI [11] was over 100 µM, the GI50 [12] was over 100 µM and the TGI [12] was over 100 µM. For the same compound, the GI50 [13] was over 100 µM and the TGI [13] was over 100 µM.
